The values that follow come from patent US9290496B2, “Purine derivatives” (PFIZER INC., priority 2013, dated 2016).

Molecules are shown by their SMILES. Structures can show the parent of a compound that is named as a salt.

Assay type in all cases: cell-based
The target of test [1] is T1, EGFR L858R+T790M, endogenous (NCI-H1975) (Homo sapiens, UniProt P00533, L858R/T790M).
T1 construct: NCI-H1975 (EGFR L858R+T790M, endogenous); host or cells: NCI-H1975
Description: pEGFR Y1068 ELISA assay, NCI-H1975 cells. The settings on record: inhibition of phosphorylation of EGFR at Tyr1068; NCI-H1975 NSCLC cells; 2 hr compound incubation. Background: ELISA stands for enzyme-linked immunosorbent assay.
Description: (§1) Phosphorylation of EGFR at Y1068 was measured by PathScan® Phospho-EGF Receptor (Try1068) Sandwich ELISA kit (#7240, Cell Signaling Technology®, Danvers, Mass.). The PathScan® Phospho-EGF Receptor (Tyr1068) Sandwich ELISA Kit is a solid phase sandwich enzyme-linked immunosorbent assay (ELISA) that detects endogenous levels of phospho-EGF Receptor (Tyr1068) protein. […] All cells were cultured according to ATCC recommendations. A549, NCI-H1975, PC9, and NCI-H3255 cells were grown in RPMI media (Invitrogen, Carlsbad, Calif.) supplemented with 10% FBS (Sigma, St Louis, Mo.), and with 1% Penn/Strep (Invitrogen). PC9-DRH cells were grown in RPMI with 10% FBS and 1 μM dacomitinib.
(§2) Cells were plated at 40,000/well in complete culture media (50 μL/well) on the bottom of clear tissue culture treated microtiter plates (#3595, Corning Inc, Corning, N.Y.) and allowed to adhere overnight at 37° C., 5% CO2. The following day, compound dilution plates were prepared in 96 well clear V-bottom 0.5 mL polypropylene block plates (#3956, Corning, Inc). Each compound was prepared as a DMSO stock solution (10 mM). Compounds were tested in duplicate on each plate, with an 11-point serial dilution curve (1:3 dilution). Compound treatment (50 μL) was added from the compound dilution plate to the cell plate. […] Plates were then incubated for 2 hr at 37° C., 5% CO2. For A549 (EGFR wildtype) assay, cells were plated in full-serum (10%) media for 24 hr prior to compound treatment; cells were treated in full serum media as described and then stimulated for 10 min with EGF (40 ng/mL/starvation media, Invitrogen). Immediately prior to the end of the incubation, ice-cold lysis buffer was prepared (1× Cell Lysis Buffer (#9803, Cell Signaling Technology), 1 mM sodium orthovanadate (Na3VO4, #96508, Sigma), 1 mM phenylmethanesulfonyl fluoride (PMSF, 52332, CalBiochem/EMD Chemicals), complete Mini EDTA-free Protease Inhibitor Cocktail Tablet (1 tablet/10 mL, #11836170001, Roche, Indianapolis, Ind.), and PhosSTOP Phosphatase Inhibitor Cocktail Tablet (1 tablet/10 mL, #04906837001, Roche) in pure water. At the end of 2 hr, media was flicked off and cells were washed once with ice-cold 1 mM Na3VO4 in PBS (100 μL/well, Invitrogen). The wash was then flicked off and ice-cold lysis buffer was added to the cells (50 μL/well). The plate was shaken for 20-30 min at 4° C. to completely lyse the cells. Sample diluent (50 μL/well) was added to the ELISA plate, and the lysate (50 μL) was diluted into the sample diluent in each well of the ELISA plate. Plates were sealed and incubated overnight at 4° C. with shaking. The next day, wells were washed four times with 1× Wash Buffer; plates were taped on lint-free paper after the final wash prior to adding Add Detection Antibody (green, 100 μL/well) to each well and incubating for 1 hr at 37° C. After incubation, wells were washed as described. HRP-Linked secondary antibody (red, 100 μL/well) was added to each well and incubated for 30 min at 37° C. After incubation, the wells were washed as described. TMB Substrate (100 μL/well) was added to each well and the plate incubated for 10 min at 37° C. or 30 min at rt maximum. Stop Solution (100 μL/well) was added to each well at the end of the incubation and plates were shaken gently for a few seconds. Absorbance was read at 450 nm within 30 min after addition of Stop Solution on a PerkinElmer EnVision Excite Multilabel Reader Method for Absorbance or on a Molecular Devices SpectraMax^384 Reader for absorbance. Data were analyzed using a four-parameter fit in Microsoft Excel.

Another test deals with T2, EGFR del/T790M (PC9-DRH) (Homo sapiens, UniProt P00533, DEL746-750/T790M).
T2 construct: detects endogenous levels of phospho-EGF Receptor (Tyr1068) protein; endogenous in cells; host or cells: PC9-DRH (dacomitinib-resistant derivative of PC9, generated in house)
T2 sequence (P00533 with tags, fused parts or gaps DEL746-750/T790M): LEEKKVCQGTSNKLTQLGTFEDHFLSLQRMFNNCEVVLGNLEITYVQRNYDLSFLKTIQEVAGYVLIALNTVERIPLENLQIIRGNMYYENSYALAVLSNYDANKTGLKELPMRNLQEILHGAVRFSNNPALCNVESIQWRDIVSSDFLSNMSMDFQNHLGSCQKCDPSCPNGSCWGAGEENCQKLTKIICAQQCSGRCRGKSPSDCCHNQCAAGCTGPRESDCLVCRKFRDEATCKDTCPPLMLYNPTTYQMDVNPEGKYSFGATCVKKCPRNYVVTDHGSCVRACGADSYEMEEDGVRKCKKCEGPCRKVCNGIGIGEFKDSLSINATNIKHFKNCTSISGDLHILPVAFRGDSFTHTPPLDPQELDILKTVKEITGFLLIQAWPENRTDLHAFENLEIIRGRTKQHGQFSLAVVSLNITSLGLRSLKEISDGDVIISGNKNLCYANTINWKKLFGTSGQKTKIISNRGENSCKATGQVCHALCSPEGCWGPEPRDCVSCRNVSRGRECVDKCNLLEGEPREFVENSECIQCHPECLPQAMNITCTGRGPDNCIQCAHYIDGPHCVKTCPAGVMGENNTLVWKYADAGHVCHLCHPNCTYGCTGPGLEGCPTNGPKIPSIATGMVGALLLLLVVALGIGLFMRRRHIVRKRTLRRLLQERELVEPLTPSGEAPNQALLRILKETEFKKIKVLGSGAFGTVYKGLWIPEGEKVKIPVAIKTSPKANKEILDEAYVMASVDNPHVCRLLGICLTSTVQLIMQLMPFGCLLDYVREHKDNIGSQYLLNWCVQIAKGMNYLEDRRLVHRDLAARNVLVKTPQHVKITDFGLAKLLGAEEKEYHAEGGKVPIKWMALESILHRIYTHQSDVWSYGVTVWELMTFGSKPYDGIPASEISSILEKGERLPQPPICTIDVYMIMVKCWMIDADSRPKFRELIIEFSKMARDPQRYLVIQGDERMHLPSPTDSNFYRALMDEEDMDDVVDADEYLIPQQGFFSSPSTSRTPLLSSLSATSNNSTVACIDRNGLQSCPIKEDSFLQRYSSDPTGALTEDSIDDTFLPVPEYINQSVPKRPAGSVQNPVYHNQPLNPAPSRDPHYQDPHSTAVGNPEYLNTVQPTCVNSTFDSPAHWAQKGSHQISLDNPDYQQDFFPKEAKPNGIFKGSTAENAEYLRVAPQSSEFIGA
Description: pEGFR Y1068 ELISA assay, PC9-DRH cells. The settings on record: inhibition of phosphorylation of EGFR at Tyr1068; PC9-DRH cells (dacomitinib resistant); 2 hr compound incubation.

Test [2] has as its target T3, EGFR wildtype, endogenous (A549) (Homo sapiens, UniProt P00533).
T3 construct: A549 (EGFR wildtype, endogenous); host or cells: A549 (stimulated with EGF)
Description: pEGFR Y1068 ELISA assay, A549 cells. Conditions: inhibition of phosphorylation of EGFR at Tyr1068; A549 NSCLC cells; 2 hr compound incubation, then stimulated 10 min with EGF (40 ng/mL).
Description: as §1, §2

T3 sequence (P00533 25-1210): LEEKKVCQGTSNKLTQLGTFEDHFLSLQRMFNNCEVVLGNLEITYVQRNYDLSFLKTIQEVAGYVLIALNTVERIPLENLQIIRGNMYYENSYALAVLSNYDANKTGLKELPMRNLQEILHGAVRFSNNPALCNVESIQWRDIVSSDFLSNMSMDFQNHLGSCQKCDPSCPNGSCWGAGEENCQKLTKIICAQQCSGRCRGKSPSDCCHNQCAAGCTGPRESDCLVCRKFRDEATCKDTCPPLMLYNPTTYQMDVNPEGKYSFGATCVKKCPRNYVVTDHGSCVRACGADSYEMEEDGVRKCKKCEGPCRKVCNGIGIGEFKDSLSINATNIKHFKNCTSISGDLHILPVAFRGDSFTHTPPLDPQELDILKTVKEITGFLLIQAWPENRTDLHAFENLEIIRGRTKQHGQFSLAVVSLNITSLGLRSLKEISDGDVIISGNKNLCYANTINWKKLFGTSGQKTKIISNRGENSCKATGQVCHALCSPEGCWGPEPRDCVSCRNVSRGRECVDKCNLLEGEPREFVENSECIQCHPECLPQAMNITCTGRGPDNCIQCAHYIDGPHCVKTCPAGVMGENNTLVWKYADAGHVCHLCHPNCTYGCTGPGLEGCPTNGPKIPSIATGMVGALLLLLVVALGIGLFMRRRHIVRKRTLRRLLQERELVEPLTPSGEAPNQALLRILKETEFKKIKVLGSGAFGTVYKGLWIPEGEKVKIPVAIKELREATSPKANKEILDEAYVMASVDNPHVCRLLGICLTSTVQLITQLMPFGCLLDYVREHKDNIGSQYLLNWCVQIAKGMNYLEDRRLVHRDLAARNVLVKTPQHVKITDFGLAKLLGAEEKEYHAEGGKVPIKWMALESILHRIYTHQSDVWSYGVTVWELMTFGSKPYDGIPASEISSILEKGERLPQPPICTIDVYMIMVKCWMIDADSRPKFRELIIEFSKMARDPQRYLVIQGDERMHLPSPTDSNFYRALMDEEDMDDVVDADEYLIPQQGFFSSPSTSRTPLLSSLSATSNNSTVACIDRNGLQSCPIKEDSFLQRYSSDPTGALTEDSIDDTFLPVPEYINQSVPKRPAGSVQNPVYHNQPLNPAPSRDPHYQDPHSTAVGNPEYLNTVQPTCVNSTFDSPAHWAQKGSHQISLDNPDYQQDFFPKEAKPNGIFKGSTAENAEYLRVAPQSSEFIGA
T1 sequence (P00533 25-1210 T790M/L858R): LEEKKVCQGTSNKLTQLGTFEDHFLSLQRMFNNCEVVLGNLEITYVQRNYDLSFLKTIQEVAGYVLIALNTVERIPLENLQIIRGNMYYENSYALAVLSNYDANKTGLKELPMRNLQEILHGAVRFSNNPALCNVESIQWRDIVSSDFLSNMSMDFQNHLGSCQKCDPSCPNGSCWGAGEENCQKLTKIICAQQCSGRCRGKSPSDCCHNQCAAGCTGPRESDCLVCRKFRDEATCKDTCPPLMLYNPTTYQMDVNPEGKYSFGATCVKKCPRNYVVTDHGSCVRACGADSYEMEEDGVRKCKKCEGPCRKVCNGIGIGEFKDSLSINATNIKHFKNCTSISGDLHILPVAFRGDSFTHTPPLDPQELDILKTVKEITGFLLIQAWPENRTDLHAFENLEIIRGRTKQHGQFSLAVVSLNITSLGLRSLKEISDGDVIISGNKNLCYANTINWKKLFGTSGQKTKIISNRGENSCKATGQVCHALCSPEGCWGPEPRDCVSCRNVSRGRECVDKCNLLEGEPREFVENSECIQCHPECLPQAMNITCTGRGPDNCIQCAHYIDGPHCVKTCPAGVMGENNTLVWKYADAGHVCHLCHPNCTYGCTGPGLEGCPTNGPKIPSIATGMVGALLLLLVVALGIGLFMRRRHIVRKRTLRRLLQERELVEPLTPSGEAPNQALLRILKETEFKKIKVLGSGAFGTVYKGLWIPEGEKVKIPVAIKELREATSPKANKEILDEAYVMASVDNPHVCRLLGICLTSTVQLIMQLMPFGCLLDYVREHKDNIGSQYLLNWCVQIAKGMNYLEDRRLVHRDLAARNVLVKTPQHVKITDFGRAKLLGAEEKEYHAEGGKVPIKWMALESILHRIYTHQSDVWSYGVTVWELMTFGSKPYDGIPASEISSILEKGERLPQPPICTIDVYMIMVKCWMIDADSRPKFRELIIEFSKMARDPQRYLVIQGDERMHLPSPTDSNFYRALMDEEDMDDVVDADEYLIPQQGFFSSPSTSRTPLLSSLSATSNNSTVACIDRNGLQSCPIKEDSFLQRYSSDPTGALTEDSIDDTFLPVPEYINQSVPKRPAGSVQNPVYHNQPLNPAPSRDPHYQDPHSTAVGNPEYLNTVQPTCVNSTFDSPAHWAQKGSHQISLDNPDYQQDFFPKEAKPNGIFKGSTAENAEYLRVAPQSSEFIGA
Description for EGFR del/T790M (PC9-DRH): The PathScan® Phospho-EGF Receptor (Tyr1068) Sandwich ELISA Kit is a solid phase sandwich enzyme-linked immunosorbent assay (ELISA) that detects endogenous levels of phospho-EGF Receptor (Tyr1068) protein. […] NCI-H3255 cells were licensed from NCI. […] All cells were cultured according to ATCC recommendations. A549, NCI-H1975, PC9, and NCI-H3255 cells were grown in RPMI media (Invitrogen, Carlsbad, Calif.) supplemented with 10% FBS (Sigma, St Louis, Mo.), and with 1% Penn/Strep (Invitrogen).
Each compound was prepared as a DMSO stock solution (10 mM). Compounds were tested in duplicate on each plate, with an 11-point serial dilution curve (1:3 dilution). Compound treatment (50 μL) was added from the compound dilution plate to the cell plate. […] Plates were then incubated for 2 hr at 37° C., 5% CO2. […] The wash was then flicked off and ice-cold lysis buffer was added to the cells (50 μL/well). The plate was shaken for 20-30 min at 4° C. to completely lyse the cells. Sample diluent (50 μL/well) was added to the ELISA plate, and the lysate (50 μL) was diluted into the sample diluent in each well of the ELISA plate. Plates were sealed and incubated overnight at 4° C. with shaking. The next day, wells were washed four times with 1× Wash Buffer; plates were taped on lint-free paper after the final wash prior to adding Add Detection Antibody (green, 100 μL/well) to each well and incubating for 1 hr at 37° C. After incubation, wells were washed as described. HRP-Linked secondary antibody (red, 100 μL/well) was added to each well and incubated for 30 min at 37° C. After incubation, the wells were washed as described. TMB Substrate (100 μL/well) was added to each well and the plate incubated for 10 min at 37° C. or 30 min at rt maximum. Stop Solution (100 μL/well) was added to each well at the end of the incubation and plates were shaken gently for a few seconds. […] Data were analyzed using a four-parameter fit in Microsoft Excel.

As usually defined, the IC50 is the concentration at which inhibition is half-maximal. Lower therefore signals inhibition by little substance. In the case of `C=CC(=O)N1C[C@@H](F)[C@H](Nc2nc(Nc3ccc(N4CCN(C)CC4)cc3)c3ncn(C(C)C)c3n2)C1` (relative stereo) [Example 19, 1-((trans)-3-fluoro-4-((9-isopropyl-6-((4-(4-methylpiperazin-1-yl)phenyl)amino) -9H-purin-2-yl)amino)pyrrolidin-1-yl)prop-2-en-1-one], the IC50 in test [1] is 10 nM; at EGFR del/T790M (PC9-DRH) it was 25 nM; in test [2] it was 194 nM.

On to `C=CC(=O)N1C[C@@H](F)[C@H](Nc2nc(Nc3ccc(N4CCN(C)CC4)cc3)c3ncn(C)c3n2)C1` (relative stereo) [Example 20, 1-((trans)-3-fluoro-4-((9-methyl-6-((4-(4-methylpiperazin-1-yl)phenyl)amino)-9H -purin-2-yl)amino)pyrrolidin-1-yl)prop-2-en-1-one], for which the IC50 is 11 nM in test [1], 2 nM on EGFR del/T790M (PC9-DRH) and 119 nM in test [2].

On to `C=CC(=O)N1C[C@H]2CN(c3nc(Nc4ccc(N5CCN(C)CC5)cc4)c4ncn(C(C)C)c4n3)C[C@]2(OC)C1` (single isomer, unassigned) [Example 64], for which the IC50 in test [1] was 8 nM; against EGFR del/T790M (PC9-DRH), 8 nM; in test [2], 127 nM.

For `C=CC(=O)Nc1cccc(Oc2nc(Nc3cnn(C)c3)c3ncn(C(C)C)c3n2)c1` [Example 3, N-(3-((9-isopropyl-6-((1-methyl-1H-pyrazol-4-yl)amino)-9H-purin-2-yl)oxy)phenyl)acrylamide trifluoroacetate], the IC50 in test [1] was 20 nM; against EGFR del/T790M (PC9-DRH) it was 8 nM; in test [2] it was 162 nM.

On to `C=CC(=O)N[C@@H]1CN(c2nc(Nc3cn(C4CN(C)C4)nc3OC)c3ncn(C)c3n2)C[C@H]1F` [Example 5, N-((3R,4R)-4-fluoro-1-(6-((3-methoxy-1-(1-methylazetidin-3-yl)-1H-pyrazol-4-yl)amino)-9-methyl-9H-purin-2-yl)pyrrolidin-3-yl)acrylamide], for which the IC50 in test [1] came out at 17 nM; at EGFR del/T790M (PC9-DRH), 8 nM; in test [2] it was 546 nM.

Turning to `C=CC(=O)NC1(C)CN(c2nc(Nc3cnn(C)c3)c3ncn(C(C)(C)C)c3n2)C1` [Example 8, N-(1-(9-(tert-butyl)-6-((1-methyl-1H-pyrazol-4-yl)amino)-9H-purin-2-yl)-3-methylazetidin-3-yl)acrylamide], the IC50 in test [1] amounted to 97 nM; at EGFR del/T790M (PC9-DRH) it was 37 nM; in test [2], 4480 nM.

Turning to `C=CC(=O)N[C@H]1CCN(c2nc(Nc3ccc(N4CCN(C)CC4)cc3)c3ncn(C(C)(C)C)c3n2)C1` [Example 9, (S)-N-(1-(9-(tert-butyl)-6-((4-(4-methylpiperazin-1-yl)phenyl)amino)-9H-purin-2-yl)pyrrolidin-3-yl)acrylamide], the IC50 worked out at 32 nM in test [1], 26 nM at EGFR del/T790M (PC9-DRH) and 2740 nM in test [2].

As to `C=CC(=O)N[C@H]1CCN(c2nc(Nc3ccc(N4CCN(C)CC4)cc3)c3ncn(C(C)CO)c3n2)C1` (stereo partly drawn) [Example 48, N-((3S)-1-(9-(1-hydroxypropan-2-yl)-6-((4-(4-methylpiperazin-1-yl)phenyl)amino) -9H-purin-2-yl)pyrrolidin-3-yl)acrylamide], the IC50 in test [1] is 204 nM; in test [2] it was 4360 nM.

Turning to `C=CC(=O)N[C@H]1CCN(c2nc(Nc3cnn(C)c3)c3ncn(C4(C)CC4)c3n2)C1` [Example 60, (S)-N-(1-(6-((1-methyl-1H-pyrazol-4-yl)amino)-9-(1-methylcyclopropyl)-9H-purin-2-yl)pyrrolidin-3-yl)acrylamide], the half-maximal inhibitory concentration (IC50) turned out to be 317 nM in test [1] and 1390 nM in test [2].

For the compound `C=CC(=O)N[C@H]1CN(c2nc(Nc3cnn(CCN(C)C)c3)c3ncn(C(C)C)c3n2)C[C@@H]1F` [Example 67, N-((3S,4S)-1-(6-((1-(2-(dimethylamino)ethyl)-1H-pyrazol-4-yl)amino)-9-isopropyl-9H-purin-2-yl)-4-fluoropyrrolidin-3-yl)acrylamide], the 50% inhibitory concentration (IC50) in test [1] was determined as 8 nM; in test [2], 90 nM.

In the case of `C=CC(=O)N[C@@H]1CN(c2nc(Nc3cnn(CCN(C)C)c3)c3ncn(C(C)(C)C)c3n2)C[C@H]1F` [Example 68, N-((3R,4R)-1-(9-(tert-butyl)-6-((1-(2-(dimethylamino)ethyl)-1H-pyrazol-4-yl)amino)-9H-purin-2-yl)-4-fluoropyrrolidin-3-yl)acrylamide], the half-inhibitory concentration (IC50) in test [1] is 18 nM; in test [2], 707 nM.

For the compound `C=CC(=O)N[C@H]1CCN(c2nc(Nc3cnn([C@H]4CCN(C)C4)c3)c3ncn(C(C)C)c3n2)C1` [Example 69, N—((S)-1-(9-isopropyl-6-((1-((S)-1-methylpyrrolidin-3-yl)-1H-pyrazol-4-yl)amino) -9H-purin-2-yl)pyrrolidin-3-yl)acrylamide], the IC50 in test [1] is 37 nM; in test [2] it was 712 nM.

On to `C=CC(=O)N[C@@H]1CN(c2nc(Nc3cnn(C4CCN(C)CC4)c3)c3ncn(C(C)(C)C)c3n2)C[C@H]1F` [Example 70, N-((3R,4R)-1-(9-(tert-butyl)-6-((1-(1-methylpiperidin-4-yl)-1H-pyrazol-4-yl)amino) -9H-purin-2-yl)-4-fluoropyrrolidin-3-yl)acrylamide], for which the values for the IC50 in test [1] and in test [2] were 29 nM and 609 nM, respectively.

On to `C=CC(=O)N[C@@H]1CN(c2nc(Nc3cnn(C4CCN(C)CC4)c3)c3ncn(C(C)C)c3n2)C[C@H]1F` [Example 71, N-((3R,4R)-4-fluoro-1-(9-isopropyl-6-((1-(1-methylpiperidin-4-yl)-1H-pyrazol-4-yl)amino)-9H-purin-2-yl)pyrrolidin-3-yl)acrylamide], for which the figures for the half-inhibitory concentration (IC50) in test [1] and in test [2] were 20 nM and 167 nM, respectively.

As for `C=CC(=O)N[C@@H]1CN(c2nc(Nc3cn(CC(C)O)nc3OC)c3ncn(C)c3n2)C[C@H]1F` (stereo partly drawn) [Example 83, N-((3R,4R)-4-fluoro-1-(6-((1-(2-hydroxypropyl)-3-methoxy-1H-pyrazol-4-yl)amino)-9-methyl-9H-purin-2-yl)pyrrolidin-3-yl)acrylamide], the IC50 was found to be 132 nM in test [1] and 3450 nM in test [2].

Consider `C=CC(=O)N[C@@H]1CN(c2nc(Nc3cn(CC(C)O)nc3OC)c3ncn(CC)c3n2)C[C@H]1F` (stereo partly drawn) [Example 86, N-((3R,4R)-1-(9-ethyl-6-((1-(2-hydroxypropyl)-3-methoxy-1H-pyrazol-4-yl)amino) -9H-purin-2-yl)-4-fluoropyrrolidin-3-yl)acrylamide], for which the concentration for half-maximal inhibition (IC50) in test [1] stood at 32 nM; in test [2], 1220 nM.

Turning to `C=CC(=O)N[C@@H]1CN(c2nc(Nc3ccc(N4CCC(N(C)C)CC4)cc3)c3ncn(C(C)C)c3n2)C[C@H]1F` [Example 89, N-((3R,4R)-1-(6-((4-(4-(dimethylamino)piperidin-1-yl)phenyl)amino)-9-isopropyl-9H-purin-2-yl)-4-fluoropyrrolidin-3-yl)acrylamide], the half-maximal inhibitory concentration (IC50) on EGFR del/T790M (PC9-DRH) came to 3 nM.

Turning to `C=CC(=O)N[C@@H]1CN(c2nc(Nc3ccc(N4CCC(N(C)C)CC4)cc3OC)c3ncn(C(C)C)c3n2)C[C@H]1F` [Example 90, N-((3R,4R)-1-(6-((4-(4-(dimethylamino)piperidin-1-yl)-2-methoxyphenyl)amino)-9-isopropyl-9H-purin-2-yl)-4-fluoropyrrolidin-3-yl)acrylamide], half-maximal inhibition against EGFR del/T790M (PC9-DRH) (IC50) required 9 nM.
